This note sets out measurements from patent US10173991B2, “Sulfone amide linked benzothiazole inhibitors of endothelial lipase” (BRISTOL-MYERS SQUIBB COMPANY, priority 2014, dated 2019).

The structures appear in SMILES notation.

The target of the first assay is Endothelial lipase (EL) (Homo sapiens (Human), UniProt Q9Y5X9). Briefly: Endothelial lipase (EL) enzymatic assay with fluorescent substrate A10070 in DMPG vesicles. The class given is biochemical.
Chain of Endothelial lipase (EL) (Q9Y5X9 21-500): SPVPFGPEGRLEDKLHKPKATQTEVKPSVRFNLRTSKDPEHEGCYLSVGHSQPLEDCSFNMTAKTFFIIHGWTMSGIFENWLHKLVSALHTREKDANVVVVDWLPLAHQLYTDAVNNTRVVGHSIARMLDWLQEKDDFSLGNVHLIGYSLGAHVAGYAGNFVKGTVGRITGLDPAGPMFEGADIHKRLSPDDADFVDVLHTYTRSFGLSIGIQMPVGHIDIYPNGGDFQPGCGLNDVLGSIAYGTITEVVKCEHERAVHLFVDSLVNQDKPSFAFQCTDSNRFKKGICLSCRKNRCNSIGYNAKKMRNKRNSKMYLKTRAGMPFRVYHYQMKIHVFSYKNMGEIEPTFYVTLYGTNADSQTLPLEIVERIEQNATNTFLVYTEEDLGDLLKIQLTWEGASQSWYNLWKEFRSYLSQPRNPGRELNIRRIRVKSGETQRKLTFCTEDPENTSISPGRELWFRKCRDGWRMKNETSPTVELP
Settings: not given
Put shortly:
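Substrate A10070 sits in sonicated DMPG vesicles at 0.11 mole fraction. Lipase and compound preincubated 30 min, 37° C, in HEPES pH 8.0 buffer with CaCl2.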
For orientation: IC50 means the concentration at which inhibition is half-maximal. Higher therefore signals weaker potency. `COCCNC(=O)c1ccc(-c2cc3sc(C(C(=O)NCC(=O)NC4CC4)S(=O)(=O)CCOC)nc3cc2Cl)cc1` (stereo not shown) [Example 99, 4-[5-chloro-2-({[(cyclopropyl-carbamoyl)methyl]carbamoyl}(2-methoxyethane-sulfonyl)methyl)-1,3-benzothiazol-6-yl]-N-(2-methoxyethyl) benzamide] came in with an IC50 of 8 nM.

In the case of `O=C(CNC(=O)C(c1nc2cc(F)c(-c3cccc(-c4cc[nH]n4)c3)cc2s1)S(=O)(=O)CCC(F)(F)F)NC1CC1` (stereo not shown) [Example 143, N-[(cyclopropyl-carbamoyl)methyl]-2-{5-fluoro-6-[3-(1H-pyrazol-3-yl)phenyl]-1,3-benzothiazol-2-yl}-2-(3,3,3-trifluoropropane-sulfonyl) acetamide], inhibition was half-maximal at 3 nM (IC50).

Turning to `Cc1ncc(-c2cc(F)c3nc(C(C(=O)NCC(=O)NC4CC4)S(=O)(=O)c4ccc(F)cc4)sc3c2)cn1` (stereo not shown) [Example 471, N-[(cyclopropyl-carbamoyl)methyl]-2-[4-fluoro-6-(2-methylpyrimidin-5-yl)-1,3-benzothiazol-2-yl]-2-(4-fluorobenzene-sulfonyl)acetamide], the IC50 was determined as 23 nM.

As for `COc1cc(-c2cc3nc(C(C(=O)NCC(=O)NC4CC4)S(C)(=O)=O)sc3cc2F)ccn1` (stereo not shown) [Example 364, N-[(cyclopropyl-carbamoyl)methyl]-2-[6-fluoro-5-(2-methoxypyridin-4-yl)-1,3-benzothiazol-2-yl]-2-methanesulfonyl-acetamide], the IC50 was 12 nM.

In the case of `CN(C)S(=O)(=O)C(C(=O)NCC(=O)NC1CC1)c1nc2cc(F)c(-c3ccc(-c4ccccc4)nc3)cc2s1` (stereo not shown) [Example 507, N-[(cyclopropyl-carbamoyl)methyl]-2-(dimethyl-sulfamoyl)-2-[5-fluoro-6-(6-phenylpyridin-3-yl)-1,3-benzothiazol-2-yl]acetamide], the IC50 is 16 nM.

Consider `COCCNC(=O)c1ccc(-c2ccc3nc(C(C(=O)NCC(=O)NC4CC4)S(=O)(=O)Cc4ccc(F)cc4)sc3c2)cc1` (stereo not shown) [Example 226, 4-[2-({[(cyclopropyl-carbamoyl)methyl]carbamoyl}(4-fluorophenyl)methanesulfonyl-methyl)-1,3-benzothiazol-6-yl]-N-(2-methoxyethyl) benzamide], for which half-maximal inhibition (IC50) required 91 nM.

As to `Cc1cc2nc(C(C(=O)NCC(=O)NC3CC3)S(=O)(=O)C(C)C)sc2cc1-c1ccc2[nH]c(=O)ccc2c1` (stereo not shown) [Example 204, N-[(cyclopropyl-carbamoyl)methyl]-2-[5-methyl-6-(2-oxo-1,2-dihydroquinolin-6-yl)-1,3-benzothiazol-2-yl]-2-(propane-2-sulfonyl) acetamide], 2 nM corresponded to half-maximal inhibition (IC50).

With `COCCS(=O)(=O)C(C(=O)NCC(=O)NC1CC1)c1nc2cc(F)c(-c3ccccc3NC(=O)OC)cc2s1` (stereo not shown) [Example 537, methyl N-{2-[2-({[(cyclopropyl-carbamoyl)methyl]carbamoyl}(2-methoxyethane-sulfonyl)methyl)-5-fluoro-1,3-benzothiazol-6-yl]phenyl} carbamate], inhibition was half-maximal at 92 nM (IC50).

On to `COCCOC(=O)Nc1ccc(-c2cc3sc(C(C(=O)NCC(=O)NC4CC4)S(=O)(=O)CCOC)nc3cc2F)cn1` (stereo not shown) [Example 37, 2-methoxyethyl N-{5-[2-({[(cyclopropyl-carbamoyl)methyl]carbamoyl}(2-methoxyethane-sulfonyl)methyl)-5-fluoro-1,3-benzothiazol-6-yl]pyridin-2-yl} carbamate], for which the IC50 came out at 5 nM.

`CS(=O)(=O)C(C(=O)NCC(=O)NC1CC1)c1nc2cc(F)c(-c3ccc4[nH]c(=O)ccc4c3)cc2s1` (stereo not shown) [Example 197, N-[(cyclopropyl-carbamoyl)methyl]-2-[5-fluoro-6-(2-oxo-1,2-dihydroquinolin-6-yl)-1,3-benzothiazol-2-yl]-2-methanesulfonyl-acetamide]: 3 nM corresponded to half-maximal inhibition (IC50).

In the case of `COCCS(=O)(=O)C(C(=O)NCC(=O)NC1CC1)c1nc2ccc(-c3ccc(-c4nnc(C)o4)cc3)cc2s1` (stereo not shown) [Example 101, N-[(cyclopropyl-carbamoyl)methyl]-2-(2-methoxyethane-sulfonyl)-2-{6-[4-(5-methyl-1,3,4-oxadiazol-2-yl)phenyl]-1,3-benzothiazol-2-yl} acetamide], the midpoint of inhibition, the IC50, lay at 9 nM.

The molecule `COCCS(=O)(=O)C(C(=O)NCC(=O)NCC(F)(F)F)c1nc2ccc(-c3ccc(F)nc3)cc2s1` (stereo not shown) [Example 378, 2-[6-(6-fluoropyridin-3-yl)-1,3-benzothiazol-2-yl]-2-(2-methoxyethane-sulfonyl)-N-{[(2,2,2-trifluoroethyl)carbamoyl]methyl} acetamide] showed an IC50 of 198 nM.

As for `COc1nccc(-c2cc3nc(C(C(=O)NCC(=O)NC4CC4)S(C)(=O)=O)sc3cc2F)c1F` (stereo not shown) [Example 368, N-[(cyclopropyl-carbamoyl)methyl]-2-[6-fluoro-5-(3-fluoro-2-methoxypyridin-4-yl)-1,3-benzothiazol-2-yl]-2-methanesulfonyl-acetamide], the IC50 stood at 17 nM.

Consider `CC(C)OCCNC(=O)CNC(=O)C(c1nc2ccc(-c3ccn(C)c(=O)c3)cc2s1)S(=O)(=O)c1ccc(F)cc1` (stereo not shown) [Example 464, 2-(4-fluorobenzene-sulfonyl)-2-[6-(1-methyl-2-oxo-1,2-dihydropyridin-4-yl)-1,3-benzothiazol-2-yl]-N-({[2-(propan-2-yloxy)ethyl]carbamoyl}methyl)acetamide], for which the IC50 was 45 nM.

On to `CC(C)S(=O)(=O)C(C(=O)NCC(=O)NC1CC1)c1nc2cc(C(F)(F)F)c(-c3cccc(C(=O)N(C)C)c3)cc2s1` (stereo not shown) [Example 175, 3-[2-({[(cyclopropyl-carbamoyl)methyl]carbamoyl} (propane-2-sulfonyl)methyl)-5-(trifluoromethyl)-1,3-benzothiazol-6-yl]-N,N-dimethyl-benzamide], for which the IC50 was 37 nM.

In turn, `O=C(CNC(=O)C(c1nc2cc(F)c(-c3ccc(F)nc3)cc2s1)S(=O)(=O)N1CCOCC1)NC1CC1` (stereo not shown) [Example 486, N-[(cyclopropyl-carbamoyl)methyl]-2-[5-fluoro-6-(6-fluoropyridin-3-yl)-1,3-benzothiazol-2-yl]-2-(morpholine-4-sulfonyl)acetamide] gave an IC50 of 48 nM.

The assay is the same for the next values; noted with them: EL from conditioned media of HT-1080 cells; 30 min preincubation at 37° C.
Molecule `COCCS(=O)(=O)C(C(=O)NCC(=O)NC1CC1)c1nc2cc(F)c(-c3ccc(-c4ncon4)cc3)cc2s1` (stereo not shown) [Example 411, 2-(6-(4-(1,2,4-Oxadiazol-3-yl)phenyl)-5-fluorobenzo[d]thiazol-2-yl)-N-(2-(cyclopropylamino)-2-oxoethyl)-2-((2-methoxyethyl)sulfonyl)acetamide] showed an IC50 of 2.1 nM.

The molecule `COCCNC(=O)CNC(=O)C(c1nc2ccc(-c3ccc4c(c3)CN(C3CC3)C4=O)cc2s1)S(=O)(=O)c1ccc(F)cc1` (stereo not shown) [Example 595, 2-(6-(2-Cyclopropyl-1-oxoisoindolin-5-yl)benzo[d]thiazol-2-yl)-2-((4-fluorophenyl)sulfonyl)-N-(2-((2-methoxyethyl)amino)-2-oxoethyl)] displayed an IC50 of 24 nM.

The molecule `O=C(CNC(=O)C(c1nc2cc(F)c(-c3ccc(F)nc3)cc2s1)S(=O)(=O)CCN1CCOCC1)NC1CC1` (stereo not shown) [Example 421, N-[(Cyclopropylcarbamoyl)methyl]-2-[5-fluoro-6-(6-fluoropyridin-3-yl)-1,3-benzothiazol-2-yl]-2-[2-(morpholin-4-yl)ethanesulfonyl]acetamide] had an IC50 of 22 nM.
